ChEMBL document CHEMBL2396574, “Design, synthesis and evaluation of retinoids with novel bulky hydrophobic partial structures” (Bioorg Med Chem, 2013)
Active and inactive are the calls of the source. The calls are words filed in the database; no cut-off is given here.

These compounds were tested on HL-60 (assay: Induction of human HL60 cell differentiation into myeloid cells at 100 nM after 4 days by NBT reduction assay relative to control). Details: not given.
Format: functional

| Structure (SMILES) | Activity [%] |
| --- | --- |
| O=C(Nc1ccc(C(=O)O)c(Cl)c1)c1cc2c3c(c1)CCCC3CCC2 | 37 |
| CC1=C(/C=C/C(C)=C/C=C/C(C)=C/C(=O)O)C(C)(C)CCC1 [TRETINOIN] | 71 |

These compounds were tested against T1, Retinoic acid receptor beta (Homo sapiens) (UniProt P10826) (assay: Transactivation of Gal4-fused RARbeta (unknown origin) expressed in African green monkey COS1 cells at 100 nM by luciferase reporter gene assay relative to DMSO-treated control). Details: COS-1.
T1 sequence (whole entry): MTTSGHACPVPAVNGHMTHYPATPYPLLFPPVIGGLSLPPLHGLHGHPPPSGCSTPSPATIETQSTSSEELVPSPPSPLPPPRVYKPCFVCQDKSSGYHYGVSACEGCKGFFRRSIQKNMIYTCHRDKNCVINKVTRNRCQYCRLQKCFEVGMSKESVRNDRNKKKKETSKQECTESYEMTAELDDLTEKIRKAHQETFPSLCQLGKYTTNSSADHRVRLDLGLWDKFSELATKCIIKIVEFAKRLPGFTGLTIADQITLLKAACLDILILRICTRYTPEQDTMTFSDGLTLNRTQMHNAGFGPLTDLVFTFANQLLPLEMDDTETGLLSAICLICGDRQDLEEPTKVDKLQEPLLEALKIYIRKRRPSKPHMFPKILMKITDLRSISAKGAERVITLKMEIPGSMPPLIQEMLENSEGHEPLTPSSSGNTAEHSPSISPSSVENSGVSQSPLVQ
Format: cell-based

| fold change (FC) | Structure (SMILES) |
| --- | --- |
| 1 | CC12CCCc3cc(C(=O)Nc4ccc(C(=O)O)s4)cc(c31)CCC2 |
| 17 | O=C(O)c1ccc(C(=O)Nc2cc3c4c(c2)CCCCC4CCCC3)nc1 |
| 12 | CC12CCCc3cc(NC(=O)c4ccc(C(=O)O)cc4)cc(c31)CCC2 |
| 1 | COc1cc(NC(=O)c2cc3c4c(c2)CCCCC4CCCC3)ccc1C(=O)O |
| 20 | CC12CCCc3cc(C(=O)Nc4ccc(C(=O)O)cc4)cc(c31)CCC2 |

Continued, compound first:

| Structure (SMILES) | fold change (FC) |
| --- | --- |
| O=C(Nc1ccc(C(=O)O)c(Cl)c1)c1cc2c3c(c1)CCCC3CCC2 | 6 |
| O=C(O)c1ccc(NC(=O)c2cc3c4c(c2)CCCCC4CCCC3)nc1 | 45 |

The compounds below were run against T2, Retinoic acid receptor RXR-beta (Homo sapiens) (UniProt P28702) (assay: Transactivation of full-length RXRbeta (unknown origin) expressed in African green monkey COS1 cells at 1000 nM by luciferase reporter gene assay). Details: COS-1.
T2 sequence (whole entry): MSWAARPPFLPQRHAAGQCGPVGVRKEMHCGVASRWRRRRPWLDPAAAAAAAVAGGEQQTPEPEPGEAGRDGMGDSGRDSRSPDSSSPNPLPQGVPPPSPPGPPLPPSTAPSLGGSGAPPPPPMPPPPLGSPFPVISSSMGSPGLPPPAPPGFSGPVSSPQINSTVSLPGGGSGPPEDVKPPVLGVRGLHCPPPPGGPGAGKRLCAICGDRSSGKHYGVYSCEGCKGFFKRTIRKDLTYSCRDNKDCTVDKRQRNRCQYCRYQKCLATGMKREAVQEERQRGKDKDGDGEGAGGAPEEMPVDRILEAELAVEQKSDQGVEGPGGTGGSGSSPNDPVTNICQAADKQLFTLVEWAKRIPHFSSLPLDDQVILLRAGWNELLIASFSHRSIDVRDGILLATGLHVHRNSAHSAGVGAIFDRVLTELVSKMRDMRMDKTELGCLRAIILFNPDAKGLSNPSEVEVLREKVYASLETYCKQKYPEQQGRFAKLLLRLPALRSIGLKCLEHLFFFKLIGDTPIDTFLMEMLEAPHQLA
Format: cell-based

| Activity | Structure (SMILES) |
| --- | --- |
| inactive | CC12CCCc3cc(C(=O)Nc4ccc(C(=O)O)s4)cc(c31)CCC2 |
| inactive | O=C(O)c1ccc(C(=O)Nc2cc3c4c(c2)CCCCC4CCCC3)nc1 |
| inactive | O=C(O)c1ccc(C(=O)Nc2cc3c4c(c2)CCCC4CCC3)s1 |
| inactive | CC12CCCc3cc(NC(=O)c4ccc(C(=O)O)cc4)cc(c31)CCC2 |
| inactive | COc1cc(NC(=O)c2cc3c4c(c2)CCCCC4CCCC3)ccc1C(=O)O |
| inactive | CC1=C(/C=C/C(C)=C/C=C/C(C)=C/C(=O)O)C(C)(C)CCC1 [TRETINOIN] |
| inactive | CC12CCCc3cc(C(=O)Nc4ccc(C(=O)O)cc4)cc(c31)CCC2 |

Second part, the compound before the results:

| Structure (SMILES) | Activity |
| --- | --- |
| O=C(Nc1ccc(C(=O)O)nc1)c1cc2c3c(c1)CCCC3CCC2 | inactive |
| CC12CCCc3cc(NC(=O)c4ccc(C(=O)O)nc4)cc(c31)CCC2 | inactive |
| O=C(Nc1ccc(C(=O)O)s1)c1cc2c3c(c1)CCCC3CCC2 | inactive |
| CC12CCCc3cc(NC(=O)c4ccc(C(=O)O)s4)cc(c31)CCC2 | inactive |
| O=C(Nc1cc2c3c(c1)CCCC3CCC2)c1ccc(C(=O)O)nc1 | inactive |
| O=C(Nc1ccc(C(=O)O)c(Cl)c1)c1cc2c3c(c1)CCCC3CCC2 | inactive |
| CC12CCCc3cc(C(=O)Nc4ccc(C(=O)O)nc4)cc(c31)CCC2 | inactive |
| O=C(O)c1ccc(NC(=O)c2cc3c4c(c2)CCCCC4CCCC3)nc1 | inactive |

Each compound was assayed on HL-60 (assay: Induction of human HL60 cell differentiation into myeloid cells at 10 nM after 4 days by NBT reduction assay relative to control). Details: not given.
Format: functional

| Structure (SMILES) | Activity [%] |
| --- | --- |
| CC12CCCc3cc(NC(=O)c4ccc(C(=O)O)cc4)cc(c31)CCC2 | 12 |
| O=C(Nc1ccc(C(=O)O)c(Cl)c1)c1cc2c3c(c1)CCCC3CCC2 | 16 |
| CC1=C(/C=C/C(C)=C/C=C/C(C)=C/C(=O)O)C(C)(C)CCC1 [TRETINOIN] | 46 |
| CC12CCCc3cc(C(=O)Nc4ccc(C(=O)O)cc4)cc(c31)CCC2 | 36 |

The compounds below were run against T3, Retinoic acid receptor RXR-gamma (Homo sapiens) (UniProt P48443) (assay: Transactivation of full-length RXRgamma (unknown origin) expressed in African green monkey COS1 cells at 1000 nM by luciferase reporter gene assay). Details: COS-1.
T3 sequence (whole entry): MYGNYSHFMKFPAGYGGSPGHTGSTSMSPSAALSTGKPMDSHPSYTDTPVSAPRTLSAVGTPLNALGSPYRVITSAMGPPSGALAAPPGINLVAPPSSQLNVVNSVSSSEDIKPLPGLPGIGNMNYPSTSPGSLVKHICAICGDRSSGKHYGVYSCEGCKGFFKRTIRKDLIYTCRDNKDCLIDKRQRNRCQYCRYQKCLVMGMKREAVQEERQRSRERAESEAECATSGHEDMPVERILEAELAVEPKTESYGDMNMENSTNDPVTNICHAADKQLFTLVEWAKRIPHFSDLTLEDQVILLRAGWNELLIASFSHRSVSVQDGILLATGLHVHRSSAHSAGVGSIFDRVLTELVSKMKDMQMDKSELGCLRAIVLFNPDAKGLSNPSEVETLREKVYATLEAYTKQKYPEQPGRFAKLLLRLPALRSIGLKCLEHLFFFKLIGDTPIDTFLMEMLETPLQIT
Format: cell-based

| Activity | Structure (SMILES) |
| --- | --- |
| inactive | CC12CCCc3cc(C(=O)Nc4ccc(C(=O)O)s4)cc(c31)CCC2 |
| inactive | O=C(O)c1ccc(C(=O)Nc2cc3c4c(c2)CCCCC4CCCC3)nc1 |
| inactive | O=C(O)c1ccc(C(=O)Nc2cc3c4c(c2)CCCC4CCC3)s1 |
| inactive | CC12CCCc3cc(NC(=O)c4ccc(C(=O)O)cc4)cc(c31)CCC2 |
| inactive | COc1cc(NC(=O)c2cc3c4c(c2)CCCCC4CCCC3)ccc1C(=O)O |
| inactive | CC1=C(/C=C/C(C)=C/C=C/C(C)=C/C(=O)O)C(C)(C)CCC1 [TRETINOIN] |
| inactive | CC12CCCc3cc(C(=O)Nc4ccc(C(=O)O)cc4)cc(c31)CCC2 |

Second part, the compound before the results:

| Structure (SMILES) | Activity |
| --- | --- |
| O=C(Nc1ccc(C(=O)O)nc1)c1cc2c3c(c1)CCCC3CCC2 | inactive |
| CC12CCCc3cc(NC(=O)c4ccc(C(=O)O)nc4)cc(c31)CCC2 | inactive |
| O=C(Nc1ccc(C(=O)O)s1)c1cc2c3c(c1)CCCC3CCC2 | inactive |
| CC12CCCc3cc(NC(=O)c4ccc(C(=O)O)s4)cc(c31)CCC2 | inactive |
| O=C(Nc1cc2c3c(c1)CCCC3CCC2)c1ccc(C(=O)O)nc1 | inactive |
| O=C(Nc1ccc(C(=O)O)c(Cl)c1)c1cc2c3c(c1)CCCC3CCC2 | inactive |
| CC12CCCc3cc(C(=O)Nc4ccc(C(=O)O)nc4)cc(c31)CCC2 | inactive |
| O=C(O)c1ccc(NC(=O)c2cc3c4c(c2)CCCCC4CCCC3)nc1 | inactive |

What follows are compounds tested against T4, Retinoic acid receptor gamma (Homo sapiens) (UniProt P13631) (assay: Transactivation of Gal4-fused RARgamma (unknown origin) expressed in African green monkey COS1 cells at 100 nM by luciferase reporter gene assay relative to DMSO-treated control). Details: COS-1.
T4 sequence (whole entry): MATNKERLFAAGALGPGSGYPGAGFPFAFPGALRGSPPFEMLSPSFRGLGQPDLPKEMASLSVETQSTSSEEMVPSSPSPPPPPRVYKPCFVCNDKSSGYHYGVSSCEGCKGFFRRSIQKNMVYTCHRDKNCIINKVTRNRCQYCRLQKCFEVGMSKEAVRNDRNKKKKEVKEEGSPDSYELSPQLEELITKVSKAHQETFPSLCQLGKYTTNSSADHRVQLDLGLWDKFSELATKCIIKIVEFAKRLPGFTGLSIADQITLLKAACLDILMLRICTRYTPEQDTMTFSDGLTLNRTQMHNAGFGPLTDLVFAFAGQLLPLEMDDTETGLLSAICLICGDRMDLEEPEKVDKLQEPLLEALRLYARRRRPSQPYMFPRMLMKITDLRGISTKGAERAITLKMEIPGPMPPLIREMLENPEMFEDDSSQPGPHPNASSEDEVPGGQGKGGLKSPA
Format: cell-based

| fold change (FC) | Structure (SMILES) |
| --- | --- |
| 1 | CC12CCCc3cc(C(=O)Nc4ccc(C(=O)O)s4)cc(c31)CCC2 |
| 2 | O=C(O)c1ccc(C(=O)Nc2cc3c4c(c2)CCCCC4CCCC3)nc1 |
| 1 | O=C(O)c1ccc(C(=O)Nc2cc3c4c(c2)CCCC4CCC3)s1 |
| 1 | CC12CCCc3cc(NC(=O)c4ccc(C(=O)O)cc4)cc(c31)CCC2 |
| 2 | COc1cc(NC(=O)c2cc3c4c(c2)CCCCC4CCCC3)ccc1C(=O)O |
| 4 | CC12CCCc3cc(C(=O)Nc4ccc(C(=O)O)cc4)cc(c31)CCC2 |

The remaining lines, values behind:

| Structure (SMILES) | fold change (FC) |
| --- | --- |
| O=C(Nc1ccc(C(=O)O)nc1)c1cc2c3c(c1)CCCC3CCC2 | 1 |
| CC12CCCc3cc(NC(=O)c4ccc(C(=O)O)nc4)cc(c31)CCC2 | 1 |
| O=C(Nc1ccc(C(=O)O)s1)c1cc2c3c(c1)CCCC3CCC2 | 1 |
| CC12CCCc3cc(NC(=O)c4ccc(C(=O)O)s4)cc(c31)CCC2 | 1 |
| O=C(Nc1cc2c3c(c1)CCCC3CCC2)c1ccc(C(=O)O)nc1 | 1 |
| O=C(Nc1ccc(C(=O)O)c(Cl)c1)c1cc2c3c(c1)CCCC3CCC2 | 1 |
| CC12CCCc3cc(C(=O)Nc4ccc(C(=O)O)nc4)cc(c31)CCC2 | 1 |
| O=C(O)c1ccc(NC(=O)c2cc3c4c(c2)CCCCC4CCCC3)nc1 | 56 |
